Source: patent US9365556B2, “3,5-diaminopyrazole kinase inhibitors” (Axikin Pharmaceuticals, Inc., priority 2012, dated 2016)

Assays:
[1] = target: T1, kinase domain protein of RC kinase (Homo sapiens, UniProt Q56UN5); assay: Enzymatic assay for kinase inhibitory activity (Crebtide substrate, LANCE read-out); type: biochemical; conditions: compound at 1 μM
T1 sequence (Q56UN5 1061-1324 limits assumed): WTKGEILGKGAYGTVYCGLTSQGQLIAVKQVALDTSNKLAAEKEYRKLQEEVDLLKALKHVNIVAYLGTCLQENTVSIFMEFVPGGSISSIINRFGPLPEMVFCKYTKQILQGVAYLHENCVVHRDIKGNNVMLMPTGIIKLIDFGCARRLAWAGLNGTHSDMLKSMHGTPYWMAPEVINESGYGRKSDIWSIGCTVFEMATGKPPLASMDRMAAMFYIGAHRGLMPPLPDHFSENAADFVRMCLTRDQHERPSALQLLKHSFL
Method in brief: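 Compound tested at 1 μM final in HEPES/MgCl2/DTT buffer with 50 nM Crebtide and kinase domain at 1 μM ATP; full-length kinase at 3 μM ATP after 45 min preincubation. Reaction 45 min at room temperature, stopped with EDTA, read by LANCE TR-FRET (665/615 nm). Activity binned as % inhibition at 1 μM.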

SMILES	inhibition at 1 µM [1] [%]	melting point [°C]	Activity (inhibition of the RC kinase activity) ([1]; 1 µM)
CS(=O)(=O)N1CCC(/C=N/c2[nH]nc(Nc3cccc(Cl)c3)c2C#N)CC1 [Compound A80]	≤ 5	102 to 105	–
N#Cc1c(Nc2cccc(Cl)c2)n[nH]c1/N=C/c1c[nH]c2c(F)c(F)c(F)c(F)c12 [Compound A68]	5 to 20	343 to 347	–
N#Cc1c(Nc2cccc(Cl)c2)n[nH]c1/N=C/c1ccc(Oc2ncccn2)cc1 [Compound A111]	20 to 50	224 to 230	–
COc1ccc(C(F)(F)F)cc1/C=N/c1[nH]nc(Nc2cccc(Cl)c2)c1C#N [Compound A75]	≤ 5	189 to 197	–
Cc1ccc(/C=N/c2[nH]nc(Nc3cccc(Cl)c3)c2C#N)c(O)c1 [Compound A101]	≤ 5	293 to 296	–
N#Cc1c(Nc2ccccc2)n[nH]c1/N=C/c1ccc(O)cc1 [Compound A22]	≤ 5	241 to 245	–
N#Cc1c(NC2CC2)n[nH]c1/N=C/c1ccc(O)cc1 [Compound A48, 3-(cyclopropylamino)-5-((4-hydroxybenzylidene)amino)-1H-pyrazole-4-carbonitrile]	≤ 5	220 to 228	–
N#Cc1c(Nc2cccc(Cl)c2)n[nH]c1/N=C/c1ccc(-n2cnc3ccccc32)cc1 [Compound A67]	20 to 50	308 to 310	–
N#Cc1ccc(/C=N/c2[nH]nc(Nc3cccc(Cl)c3)c2C#N)cc1 [Compound A102]	5 to 20	266 to 274	–
N#Cc1c(Nc2cccc(Cl)c2)n[nH]c1/N=C/c1ccc2snnc2c1 [Compound A90]	≤ 5	276 to 281	–
N#Cc1c(Nc2ccccc2)n[nH]c1/N=C/c1ccc(Cl)cc1 [Compound A7]	5 to 20	276 to 278	–
N#Cc1c(Nc2cccc(Cl)c2)n[nH]c1/N=C/c1ccc(F)cc1O [Compound A98]	20 to 50	232 to 238	–
N#Cc1c(Nc2cccc(Cl)c2)n[nH]c1/N=C/c1ccc(C(F)(F)F)cc1 [Compound A15, 3-((3-chlorophenyl)amino)-5-((4-(trifluoromethyl)benzylidene)amino)-1H-pyrazole-4-carbonitrile]	5 to 20	279 to 282	–
N#Cc1c(Nc2ccccc2)n[nH]c1/N=C/c1ccccc1 [Compound A9]	20 to 50	257 to 260	–
N#Cc1c(Nc2cccc(Cl)c2)n[nH]c1/N=C/c1cc[nH]c1 [Compound A106]	≤ 5	240 to 248	–
N#Cc1c(Nc2ccccc2)n[nH]c1/N=C/c1cccc2ccccc12 [Compound A8]	5 to 20	259 to 263	–
N#Cc1c(Nc2cccc(Cl)c2)n[nH]c1/N=C/c1cnc(N)s1 [Compound A103]	–	221 to 225	D (no greater than 5% inhibition of the RC kinase activity at 1 μM)

SMILES	inhibition at 1 µM [1] [%]	melting point [°C]	Activity (inhibition of the RC kinase activity) ([1]; 1 µM)
COc1ccc(/C=N/c2[nH]nc(Nc3cccc(Cl)c3)c2C#N)cc1 [Compound A13]	5 to 20	263 to 266	–
N#Cc1c(Nc2cccc(Cl)c2)n[nH]c1N=Cc1ccc(O)c([N+](=O)[O-])c1 [Compound A5, 3-((3-chlorophenyl)amino)-5-((4-hydroxy-3-nitrobenzylidene)amino)-1H-pyrazole-4-carbonitrile]	20 to 50	286 to 288	–
N#Cc1c(Nc2cccc(Cl)c2)n[nH]c1/N=C/c1ccc(-c2ccccn2)cc1 [Compound A84]	≤ 5	326 to 329	–
N#Cc1c(Nc2ccccc2)n[nH]c1/N=C/c1ccc(O)c([N+](=O)[O-])c1 [Compound A10]	5 to 20	284 to 286	–
N#Cc1c(Nc2cccc(Cl)c2)n[nH]c1/N=C/c1ccc(Oc2ccc(C(F)(F)F)cn2)cc1 [Compound A61]	5 to 20	264 to 268	–
N#Cc1c(Nc2cccc(Cl)c2)n[nH]c1/N=C/c1ccc(-n2cncn2)cc1 [Compound A87]	≤ 5	284 to 288	–
COc1cc(/C=N/c2[nH]nc(Nc3ccccc3)c2C#N)ccc1O [Compound A21, 5-((4-hydroxy-3-methoxybenzylidene)amino)-3-(phenylamino)-1H-pyrazole-4-carbonitrile]	5 to 20	208 to 214	–
N#Cc1c(Nc2cccc(Cl)c2)n[nH]c1/N=C/c1ccc(S(F)(F)(F)(F)F)cc1 [Compound A65, 3-((3-chlorophenyl)amino)-5-((4-(pentafluorolthio)benzylidene)amino)-1H-pyrazole-4-carbonitrile]	5 to 20	200 to 216	–
N#Cc1c(Nc2cccc(Cl)c2)n[nH]c1/N=C/c1cccn1S(=O)(=O)c1ccccc1 [Compound A64]	20 to 50	217 to 225	–
N#Cc1c(Nc2cccc(Cl)c2)n[nH]c1/N=C/c1ccc(Cl)cc1 [Compound A12]	20 to 50	283 to 286	–
COc1ccc(Nc2n[nH]c(/N=C/c3ccc(O)c([N+](=O)[O-])c3)c2C#N)cc1 [Compound A42]	≤ 5	274 to 275	–
N#Cc1c(Nc2cccc(Cl)c2)n[nH]c1/N=C/c1ccccc1 [Compound A11]	5 to 20	260 to 264	–
N#Cc1c(Nc2ccc(Cl)cc2)n[nH]c1/N=C/c1ccc(Cl)cc1 [Compound A35]	≤ 5	296 to 300	–
N#Cc1c(Nc2cccc(Cl)c2)n[nH]c1/N=C/c1cccc(Oc2ncccn2)c1 [Compound A76]	5 to 20	234 to 239	–
COc1ccccc1/C=N/c1[nH]nc(Nc2ccccc2)c1C#N [Compound A26]	5 to 20	202 to 206	–
COc1ccc(/C=N/c2[nH]nc(Nc3cccc(Cl)c3)c2C#N)cc1F [Compound A93]	20 to 50	217 to 220	–

Now from value to molecule, other results behind:

inhibition at 1 µM [1] [%]	melting point [°C]	SMILES	Activity (inhibition of the RC kinase activity) ([1]; 1 µM)
≥ 50	254 to 258	NC(=O)c1c(Nc2ccccc2Cl)n[nH]c1/N=C/c1ccc(O)cc1 [Compound B117]	–
5 to 20	291 to 293	NC(=O)c1c(Nc2ccccc2)n[nH]c1/N=C/c1ccc(Cl)cc1 [Compound B12]	–
5 to 20	304 to 306	COc1ccc(/C=N/c2[nH]nc(Nc3ccccc3Cl)c2C(N)=O)cc1[N+](=O)[O-] [Compound B118]	–
5 to 20	303 to 305	NC(=O)c1c(Nc2cccc(Cl)c2)n[nH]c1/N=C/c1ccc(Cl)cc1 [Compound B4, 5-((4-chlorobenzylidene)amino)-3-((3-chlorophenyl)amino)-1H-pyrazole-4-carboxamide]	–
≥ 50	261 to 263	NC(=O)c1c(Nc2cccc(Cl)c2)n[nH]c1/N=C/c1ccc(O)cc1 [Compound B5]	–
5 to 20	281 to 283	NC(=O)c1c(Nc2cccc(Cl)c2)n[nH]c1/N=C/c1cc(Br)ccc1O [Compound B49, 5-((5-bromo-2-hydroxybenzylidene)amino)-3-((3-chlorophenyl)amino)-1H-pyrazole-4-carboxamide]	–
5 to 20	303 to 306	NC(=O)c1c(Nc2ccc(Cl)cc2)n[nH]c1/N=C/c1ccccc1 [Compound B21]	–
≥ 50	288 to 292	COc1ccc(/C=N/c2[nH]nc(Nc3ccccc3Cl)c2C(N)=O)cc1 [Compound B120]	–
5 to 20	238 to 246	COc1cccc(O)c1/C=N/c1[nH]nc(Nc2ccccc2Cl)c1C(N)=O [Compound B1]	–
≥ 50	296 to 298	NC(=O)c1c(Nc2cccc(Cl)c2)n[nH]c1N=Cc1ccc(O)c([N+](=O)[O-])c1 [Compound B2, 3-((3-chlorophenyl)amino)-5-((4-hydroxy-3-nitrobenzylidene)amino)-1H-pyrazole-4-carboxamide]	–
5 to 20	283 to 287	NC(=O)c1c(Nc2cccc(Cl)c2)n[nH]c1/N=C/c1cc(Cl)ccc1O [Compound B50]	–
20 to 50	270 to 273	COc1ccccc1/C=N/c1[nH]nc(Nc2cccc(Cl)c2)c1C(N)=O [Compound B18]	–
20 to 50	273 to 277	NC(=O)c1c(Nc2ccc(Cl)cc2)n[nH]c1/N=C/c1ccc[nH]1 [Compound B20]	–
≥ 50	306 to 309	NC(=O)c1c(Nc2cccnc2)n[nH]c1/N=C/c1ccc(O)cc1 [Compound B121, 5-((4-hydroxybenzylidene)amino)-3-(pyridin-3-ylamino)-1H-pyrazole-4-carboxamide]	–
≥ 50	288 to 289	NC(=O)c1c(Nc2ccc(Cl)cc2)n[nH]c1/N=C/c1ccc(O)cc1 [Compound B26]	–
20 to 50	283 to 285	COc1cccc(/C=N/c2[nH]nc(Nc3cccc(Cl)c3)c2C(N)=O)c1 [Compound B8]	–
5 to 20	280 to 283	NC(=O)c1c(Nc2cccc(Cl)c2)n[nH]c1/N=C/c1cccc2ccccc12 [Compound B15]	–
